Measurements taken from patent US7893220B2, “Busulfan immunoassay” (Saladax Biomedical Inc., priority 2004, dated 2011).

Key:
[1] = system: busulfan antibodies (antisera of example 7); test: Indirect competitive microtiter plate immunoassay (ELISA), busulfan derivative 11-BSA sensitized plates; type: binding, mouse; settings: antibodies to Busulfan-KLH (example 7); plate coating Busulfan-BSA conjugate example 6, derivative 11; ratio of IC50 busulfan to IC50 analyte
Experimental: (§1) Ten Female BALB/c mice were immunized i.p. with 100 μg/mouse of Busulfan-BTG immunogen prepared in example 3 or with Busulfan-KLH immunogen prepared in example 4, emulsified in Complete Freund's Adjuvant. Mice were boosted once four weeks after the initial injection with 100 μg/mouse of the same immunogens emulsified in Incomplete Freund's Adjuvant. Ten or 28 days after the boost test bleeds from each mouse were obtained by orbital bleed. The anti-serum from these test bleeds contained Busulfan antibodies evaluated in Examples 9 , 10a and 10b.
(§2) The ELISA method for measuring busulfan concentrations was performed in polystyrene microtiter plates (Nunc MaxiSorp C8 or F8 Immunomodules) optimized for protein binding and containing 96 wells per plate. Each well was coated with busulfan-BSA conjugate (prepared as in example 6) by adding 300 μL of busulfan-BSA conjugate at 2.5 μg/mL in 7.5 μg/mL BSA, 0.05M sodium bicarbonate, pH=9.6, and incubating for three hours at room temperature. The wells were washed with 0.05M sodium bicarbonate, pH 9.6 and then were blocked with 400 μL of 5% sucrose, 0.2% sodium caseinate solution for 30 minutes at room temperature. After removal of the post-coat solution the plates were dried at 37° C. overnight.
(§3) The ELISA method for screening busulfan antibodies (produced in example 7) was performed with the microtiter plates that were sensitized with busulfan-BSA as described in examples 8a and 8b. The antibody screening assay was performed by diluting the antisera containing busulfan antibodies (of example 7) to 1:100, 1:1,000, 1:10,000 and 1:100,000 in phosphate buffered saline containing 0.1% BSA and 0.01% thimerosal. To each well of busulfan-BSA sensitized wells (prepared in examples 8a and 8b) 100 μL of diluted antibody was added and incubated for 10 minutes at room temperature with shaking. During this incubation antibody binds to the busulfan-conjugate in the well. […] Following the incubation for color development, 50 μL of stop solution (1.5% sodium fluoride in di H2O) was added to each well to stop the color development and after 10 seconds of shaking the absorbance was determined at 650 nm (Molecular Devices Plate Reader). The amount of antibody in a well was proportional to the absorbance measured and was expressed as the dilution (titer) resulting in an absorbance of 1.5. Titers were determined by graphing Log antibody dilution of the antibody measured (x-axis) vs. absorbance 650 nm (y-axis) and extrapolating the titer at an absorbance of 1.5. The titer determined the concentration (dilution) of antibody used in the indirect competitive Microtiter plate assay described in examples 10a and 10b. […]

[2] = system: busulfan antibodies (antisera of example 7); test: Indirect competitive microtiter plate immunoassay (ELISA), busulfan derivative 7-BSA sensitized plates; type: binding, mouse; settings: antibodies to Busulfan-KLH (example 7); plate coating Busulfan-BSA conjugate example 5, derivative 7; ratio of IC50 busulfan to IC50 analyte
Experimental: as §1
as §2, with “5)” for “6)”, “10” for “2.5”, “in” for “in 7.5 μg/mL BSA,”
as §3, with “well. The wells of the plates were washed three times with 0.02 M TRIS, 0.9% NaCl, 0.5% Tween-80 and 0.001% Thimerosal, pH 7.8 to remove any unbound antibody.” for “well.”

## C1CCSC1 [Tetrahydrothiophene, tetrahydrothiophene]
[1]
  Cross-Reactivity of Competitive Immunoassay: <0.24%
[2]
  Cross-Reactivity of Competitive Immunoassay: <0.4%

## O=S1(=O)CCCC1 [Tetramethylene sulfone, tetramethylene sulfone]
[1]
  Cross-Reactivity of Competitive Immunoassay: <0.24%
[2]
  Cross-Reactivity of Competitive Immunoassay: <0.4%

## CS(=O)(=O)OCCCCOS(C)(=O)=O [Busulfan]
[1]
  Cross-Reactivity of Competitive Immunoassay: 100%
[2]
  Cross-Reactivity of Competitive Immunoassay: 100%

## O=S1(=O)CCC(O)C1 (centres unmarked) [Tetrahydrothiophene-3-ol-1,1-dioxide, tetrahydrothiophene-3-ol-1,1-dioxide]
[1]
  Cross-Reactivity of Competitive Immunoassay: <0.24%
[2]
  Cross-Reactivity of Competitive Immunoassay: <0.4%
